In patent publication EP4692072A1, “PHOTOCHROMIC COMPOUND, PROPARGYL ALCOHOL COMPOUND, CURABLE COMPOSITION, OPTICAL ARTICLE, LENS, AND SPECTACLES” (TOKUYAMA CORPORATION, priority 2023, dated 2024) one finds Residual rate, A23 and Maximum absorption wavelength data, which are given here for 1 compound.

Common to all, as to format: physicochemical
The nature of series [1]: Accelerated deterioration (xenon weather meter X25, 120 hours) of photochromic cured product prepared by kneading method. To be noted: 1 mm cured product, 0.106 mmol per 100 g monomer, A120/A0×100 after 120 hours xenon weather meter. As to the method:
(§1) • [1] Maximum Absorption Wavelength (λmax): The maximum absorption wavelength after color development, measured using a spectrophotometer (instantaneous multichannel photodetector MCPD3000) manufactured by Otsuka Electronics Co., Ltd. was used as an indicator for the color tone during the color development. • [2] 23°C Color Optical Density (A23): A difference between an absorbancy measured after light irradiation at 23°C for 300 seconds {ε(300)} and an absorbancy without light irradiation ε(0) at the maximum absorption wavelength was used as an indicator for the color optical density. […] 23°C color fading half-life [τ1/2 (sec.)]: A time required for the absorbancy of the sample at the maximum absorption wavelength to decrease to 1/2 of {ε(300)-ε(0)} when the light irradiation was terminated after the light irradiation at 23°C for 300 seconds, was used as an indicator for the color fading speed. The shorter this time, the higher the color fading speed. • [4] Residual rate (A120/A0×100): The obtained photochromic plastic lens was subjected to accelerated deterioration using a xenon weather meter X25 manufactured by Suga Test Instruments Co., Ltd. for 120 hours. Subsequently, the color optical density was evaluated before and after the test, then a color optical density before the test (A0) and a color optical density after the test (A120) were measured, and a ratio (A120/A0) was defined as a residual rate. The residual rate was used as an indicator for a color developing durability. The higher the residual rate, the higher the color developing durability. The results of Examples 26, 50, and Comparative Examples 1 to 8 are summarized in Table 1, and the results of Examples 27 to 49 are summarized in Tables 2 and 3.
(§2) First, the photochromic compound obtained in Example 1, additives, and a polymerizable compound were mixed to obtain a curable composition.
(§3) As the polymerizable compound, a combination of the following polymerizable monomers was used. • 1,3-bis(isocyanatomethyl)cyclohexane: 36.7 parts by mass Pentaerythritol tetrakis(3-mercaptopropionate): 39.4 parts by mass • Polyoxyethylene polyoxypropylene lauryl ether (Wonder Surf 140 manufactured by Aoki Oil Industrial Co., Ltd.): 17.4 parts by mass • 1-decanethiol: 2.8 parts by mass • RX-1 adjusted according to the method described in Patent Document 13: 3.8 parts by mass
(§4) Note that the photochromic compound was added to the curable composition so that the amount of the photochromic compound was 0.106 mmol based on 100 g of the total amount of the polymerizable monomer. The following additives were used: Dimethyltin dichloride • : 0.05 part by mass • Irganox 245: 0.1 part by mass • 2-ethylhexyl 4-methoxycinnamate: 0.6 part by mass
(§5) The prepared curable composition was thoroughly defoamed, then injected into a glass mold having a 1 mm gap, and polymerized by cast polymerization. The polymerization was carried out in an air furnace while gradually raising the temperature from 27°C to 120°C over 18 hours. After the polymerization, the cured product was removed from the glass mold to obtain a photochromic cured product having a thickness of 1 mm. The obtained photochromic cured product was evaluated in the same manner as in Example 26.
(§6) (Examples 85 to 99, and Comparative Example 14 to 18) Photochromic cured products were prepared using photochromic compounds presented in Tables 6 and 7 in the same manner as in Example 84. The results of Examples 84 and 85 and Comparative Examples 14 to 18 are summarized in Table 6, and the results of Examples 86 to 99 are summarized in Table 7.

Series [2] can be described thus: Accelerated deterioration (xenon weather meter X25, 120 hours) of photochromic laminate prepared by coating method. To be noted: 0.25 mmol per 100 g monomers, A120/A0×100 after 120 hours xenon weather meter.
Text: (§7) First, the photochromic compound obtained in Example 1, a photoinitiator, and a polymerizable compound were mixed to obtain a curable composition.
(§8) Polyethylene glycol dimethacrylate (average molecular weight: 736): 42 parts by mass • Polyethylene glycol dimethacrylate (average molecular weight: 536): 12 parts by mass • Trimethylolpropane trimethacrylate: 38 parts by mass γ-methacryloyloxypropyl trimethoxysilane: 2 parts by mass Glycidyl methacrylate: 1 part by mass
(§9) Note that the photochromic compound was added to the curable composition so that the amount of the photochromic compound was 0.25 mmol based on 100 g of the total amount of the radical-polymerizable monomers.
(§10) Phenylbis(2,4,6-trimethylbenzoyl)phosphine oxide (photoinitiator: Omnirad 819): 0.3 parts by mass Ethylene bis(oxyethylene) bis[3-(5-tert-butyl-4-hydroxy-m-tolyl)propionate] (stabilizer, Irganox 245): 1 part by mass Bis(1,2,2,6,6-pentamethyl-4-piperidyl) sebacate: 3 parts by mass Leveling agent (L7001) manufactured by Dow Corning Toray Co.,Ltd.: 0.1 part by mass
(§11) First, a thiourethane-based plastic lens having a central thickness of 2 mm and a refractive index of 1.60 was prepared as the optical substrate. Note that this thiourethane-based plastic lens was pre-treated by alkaline etching with a 10% sodium hydroxide aqueous solution at 50°C for 5 minutes, followed by sufficient washing with distilled water.
(§12) A surface of the above-described plastic lens was coated with a moisture-curable primer (product name: TR-SC-P, manufactured by Tokuyama Corporation) at a rotation frequency of 70 rpm for 15 seconds, followed by 1000 rpm for 10 seconds, using a spin coater (1H-DX2, manufactured by MIKASA CO., LTD), Subsequently, about 2 g of the photochromic curable composition obtained above was spin-coated at a rotation frequency of 60 rpm for 40 seconds, followed by 600 rpm for 10 to 20 seconds, to form a photochromic coating layer with a film thickness of 40 µm.
(§13) The lens with the surface coated with the photochromic curable composition (photochromic coating layer) was irradiated with light using a metal halide lamp with an output power of 200 mW/cm^2 in a nitrogen gas atmosphere for 90 seconds to cure the coating film. Subsequently, the lens was further heated at 110°C for 1 hour to prepare a photochromic laminate having a photochromic layer.
as §1, with “The results of Examples 26, 50, and Comparative Examples 1 to 8 are summarized in Table 1, and the results of Examples 27 to 49 are summarized in Tables 2 and 3.” left out

Series [3] in a line: Photochromic properties of photochromic cured product prepared by kneading method. Conditions: 0.106 mmol per 100 g monomer. The protocol:
as §1, §2, §3, §4, §5, §6

Series [4] in a line: Photochromic properties of photochromic laminate (plastic lens) prepared by coating method. To be noted: 40 µm photochromic layer on thiourethane lens, 0.25 mmol compound per 100 g monomers, after color development.
Text: as §7, §8, §9, §10, §11, §12, §13
In the same manner as in Example 26, photochromic laminates were prepared using the photochromic compounds obtained in Examples 2 to 25.
as §1, with “The higher the residual rate, the higher the color developing durability. The results of Examples 26, 50, and Comparative Examples 1 to 8 are summarized in Table 1, and the results of Examples 27 to 49 are summarized in Tables 2 and 3.” left out

`CCC1(CC)CCC2(CC1)c1ccccc1-c1c2c2c(c3cc(OC)c(N(c4ccccc4)c4ccccc4)cc13)OC(c1ccc(C)cc1)(c1ccc(N(C)c3ccc(C)cc3)cc1)C=C2` (centres unmarked) [Example 2]: the Residual rate in series [1] turned out to be 72%; in series [2] it was 67%. Further, the A23 in series [3] (1 mm cured product, 23°C color optical density ε(300)-ε(0)) is 1.41 -. Besides, the Maximum absorption wavelength in series [3] (1 mm thiourethane cured product, after color development) worked out at 526 nm; in series [4] it was 522 nm.
